Experiments:
Settings in all cases: Compound Concentration 10.0 uM, Hit No
[1] = target: Uracil-DNA glycosylase (Homo sapiens) (UniProt P13051);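 also: UNG excision on a quenched double-stranded DNA oligo probe, with APE1 added for strand incision and turnover, read as fluorescence at 594 nm as strands separate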
Description: Inhibition of UNG by quantifying inhibition of UNG-mediated cleavage and dissociation of quenched duplex DNA oligonucleotides, measured as fluorescence at 594 nm. To generate a functional strand incision and increase turn-over this assay is coupled to APE1.

[2] = target: T1, Endonuclease III-like protein 1 (Homo sapiens) (UniProt P78549);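 also: enzyme assay tracking NTHL1 cutting and release of a quenched double-stranded DNA oligo substrate, read as fluorescence at 594 nm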
T1 sequence (whole entry): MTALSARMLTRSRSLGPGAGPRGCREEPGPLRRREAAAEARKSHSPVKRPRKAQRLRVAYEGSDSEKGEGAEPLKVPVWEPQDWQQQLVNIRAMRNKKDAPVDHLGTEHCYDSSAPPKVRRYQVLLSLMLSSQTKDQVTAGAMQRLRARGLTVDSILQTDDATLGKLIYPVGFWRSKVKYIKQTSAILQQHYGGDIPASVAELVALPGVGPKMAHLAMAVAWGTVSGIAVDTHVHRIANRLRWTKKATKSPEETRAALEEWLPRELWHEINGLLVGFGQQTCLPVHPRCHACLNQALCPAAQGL
Description: Inhibition of NTHL1 by quantifying inhibition of NTHL1-mediated cleavage and dissociation of quenched duplex DNA oligonucleotides, measured as fluorescence at 594 nm.

[3] = target: G/T mismatch-specific thymine DNA glycosylase (Homo sapiens) (UniProt Q13569);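 also: human TDG cleavage of quenched duplex DNA oligonucleotides coupled to APE1, strand release read as fluorescence at 594 nm, inhibition of TDG activity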
Description: Inhibition of TDG by quantifying inhibition of TDG-mediated cleavage and dissociation of quenched duplex DNA oligonucleotides, measured as fluorescence at 594 nm. To generate a functional strand incision and increase turn-over this assay is coupled to APE1.

[4] = target: Endonuclease 8-like 1 (Homo sapiens) (UniProt Q96FI4);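 also: fluorescence at 594 nm from quenched duplex DNA oligonucleotides released by NEIL1 cleavage and strand separation, reported as reduction of this enzyme activity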
Description: Inhibition of NEIL1 by quantifying inhibition of NEIL1-mediated cleavage and dissociation of quenched duplex DNA oligonucleotides, measured as fluorescence at 594 nm.

[5] = target: DNA-3-methyladenine glycosylase (Homo sapiens) (UniProt P29372);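 also: enzyme assay where MPG cuts a quenched duplex DNA oligonucleotide probe, paired with APE1 for strand incision and turnover, read as fluorescence at 594 nm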
Description: Inhibition of MPG by quantifying inhibition of MPG-mediated cleavage and dissociation of quenched duplex DNA oligonucleotides, measured as fluorescence at 594 nm. To generate a functional strand incision and increase turn-over this assay is coupled to APE1.

[6] = target: Methyl-CpG-binding domain protein 4 (Homo sapiens) (UniProt O95243);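 also: MBD4 activity read as fluorescence at 594 nm from cleavage and release of a quenched duplex DNA oligonucleotide, with APE1 coupled to incise the strand and raise turnover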
Description: Inhibition of MBD4 by quantifying inhibition of MBD4-mediated cleavage and dissociation of quenched duplex DNA oligonucleotides, measured as fluorescence at 594 nm. To generate a functional strand incision and increase turn-over this assay is coupled to APE1.

[7] = target: T2, Adenine DNA glycosylase (Homo sapiens) (UniProt Q9UIF7);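 also: human MUTYH activity read as 594 nm fluorescence from cleavage and release of a quenched DNA duplex, coupled with APE1 for strand incision, lower signal meaning inhibition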
T2 sequence (whole entry): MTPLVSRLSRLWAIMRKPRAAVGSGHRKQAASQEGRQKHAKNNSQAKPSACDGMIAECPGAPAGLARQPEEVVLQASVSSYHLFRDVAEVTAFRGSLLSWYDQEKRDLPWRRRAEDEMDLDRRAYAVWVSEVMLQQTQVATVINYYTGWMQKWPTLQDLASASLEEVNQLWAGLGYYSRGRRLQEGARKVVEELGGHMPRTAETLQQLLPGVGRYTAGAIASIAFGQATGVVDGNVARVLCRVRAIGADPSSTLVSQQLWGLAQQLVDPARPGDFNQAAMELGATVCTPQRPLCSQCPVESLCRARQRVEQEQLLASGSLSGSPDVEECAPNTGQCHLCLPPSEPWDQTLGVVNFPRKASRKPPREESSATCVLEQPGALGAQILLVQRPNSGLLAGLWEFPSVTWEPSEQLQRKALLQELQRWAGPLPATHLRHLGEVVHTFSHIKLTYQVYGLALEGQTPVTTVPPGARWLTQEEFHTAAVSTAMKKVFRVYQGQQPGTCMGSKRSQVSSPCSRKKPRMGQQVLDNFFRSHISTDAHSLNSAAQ
Description: Inhibition of MUTYH by quantifying inhibition of MUTYH-mediated cleavage and dissociation of quenched duplex DNA oligonucleotides, measured as fluorescence at 594 nm. To generate a functional strand incision and increase turn-over this assay is coupled to APE1.

[8] = target: T3, Endonuclease 8-like 2 (Homo sapiens) (UniProt Q969S2);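 also: fluorescence at 594 nm reports NEIL2 cutting and release of a quenched double-stranded DNA oligo substrate, reduced signal read as inhibition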
T3 sequence (whole entry): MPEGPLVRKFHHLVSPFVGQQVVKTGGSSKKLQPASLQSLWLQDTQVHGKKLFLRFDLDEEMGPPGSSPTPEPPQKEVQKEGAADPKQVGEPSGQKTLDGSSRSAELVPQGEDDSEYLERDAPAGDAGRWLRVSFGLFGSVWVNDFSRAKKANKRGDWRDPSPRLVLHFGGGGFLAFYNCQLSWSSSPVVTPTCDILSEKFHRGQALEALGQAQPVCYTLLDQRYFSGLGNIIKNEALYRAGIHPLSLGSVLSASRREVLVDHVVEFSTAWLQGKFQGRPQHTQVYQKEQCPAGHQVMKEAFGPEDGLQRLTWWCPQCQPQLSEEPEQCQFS
Description: Inhibition of NEIL2 by quantifying inhibition of NEIL2-mediated cleavage and dissociation of quenched duplex DNA oligonucleotides, measured as fluorescence at 594 nm.

[9] = target: N-glycosylase/DNA lyase (Homo sapiens) (UniProt O15527);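 also: OGG1 cleavage of a quenched duplex DNA oligonucleotide, coupled to APE1 for strand incision, read as fluorescence at 594 nm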
Description: Inhibition of OGG1 by quantifying inhibition of OGG1-mediated cleavage and dissociation of quenched duplex DNA oligonucleotides, measured as fluorescence at 594 nm. To generate a functional strand incision and increase turn-over this assay is coupled to APE1.

[10] = target: T4, Single-strand selective monofunctional uracil DNA glycosylase (Homo sapiens) (UniProt Q53HV7);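 also: enzymatic SMUG1 assay coupled with APE1, reading fluorescence at 594 nm released when a quenched double-stranded DNA oligonucleotide substrate is cleaved and separated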
T4 sequence (whole entry): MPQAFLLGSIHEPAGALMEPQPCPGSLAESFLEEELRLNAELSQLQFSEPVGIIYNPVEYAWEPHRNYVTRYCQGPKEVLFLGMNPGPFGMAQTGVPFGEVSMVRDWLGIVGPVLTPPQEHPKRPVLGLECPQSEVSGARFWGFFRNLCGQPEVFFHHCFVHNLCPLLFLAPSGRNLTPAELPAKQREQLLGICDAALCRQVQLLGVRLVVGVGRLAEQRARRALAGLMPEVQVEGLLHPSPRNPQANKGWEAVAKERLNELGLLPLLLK
Description: Inhibition of SMUG1 by quantifying inhibition of SMUG1-mediated cleavage and dissociation of quenched duplex DNA oligonucleotides, measured as fluorescence at 594 nm. To generate a functional strand incision and increase turn-over this assay is coupled to APE1.

Endonuclease 8-like 1 (Homo sapiens), sequence (Q96FI4 whole entry): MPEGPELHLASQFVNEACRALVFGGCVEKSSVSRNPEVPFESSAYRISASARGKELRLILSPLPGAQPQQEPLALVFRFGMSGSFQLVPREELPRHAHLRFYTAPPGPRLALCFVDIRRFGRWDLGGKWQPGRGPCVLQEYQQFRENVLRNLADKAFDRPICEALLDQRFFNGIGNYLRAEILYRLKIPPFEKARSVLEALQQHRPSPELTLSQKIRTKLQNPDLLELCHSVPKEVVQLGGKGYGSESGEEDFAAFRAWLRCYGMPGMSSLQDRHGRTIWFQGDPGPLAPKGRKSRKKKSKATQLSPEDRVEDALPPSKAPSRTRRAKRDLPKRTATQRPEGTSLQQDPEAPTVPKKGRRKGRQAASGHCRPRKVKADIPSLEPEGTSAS
DNA-3-methyladenine glycosylase (Homo sapiens), sequence (P29372 whole entry, the tested form may be a part): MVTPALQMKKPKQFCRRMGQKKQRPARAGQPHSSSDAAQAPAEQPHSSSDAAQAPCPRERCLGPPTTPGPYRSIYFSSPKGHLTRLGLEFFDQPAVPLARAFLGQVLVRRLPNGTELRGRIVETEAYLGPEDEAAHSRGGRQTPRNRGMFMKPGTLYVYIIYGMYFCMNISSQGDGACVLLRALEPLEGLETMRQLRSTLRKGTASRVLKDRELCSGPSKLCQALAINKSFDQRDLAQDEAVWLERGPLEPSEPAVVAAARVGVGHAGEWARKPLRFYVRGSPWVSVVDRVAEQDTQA
Uracil-DNA glycosylase (Homo sapiens), sequence (P13051 whole entry): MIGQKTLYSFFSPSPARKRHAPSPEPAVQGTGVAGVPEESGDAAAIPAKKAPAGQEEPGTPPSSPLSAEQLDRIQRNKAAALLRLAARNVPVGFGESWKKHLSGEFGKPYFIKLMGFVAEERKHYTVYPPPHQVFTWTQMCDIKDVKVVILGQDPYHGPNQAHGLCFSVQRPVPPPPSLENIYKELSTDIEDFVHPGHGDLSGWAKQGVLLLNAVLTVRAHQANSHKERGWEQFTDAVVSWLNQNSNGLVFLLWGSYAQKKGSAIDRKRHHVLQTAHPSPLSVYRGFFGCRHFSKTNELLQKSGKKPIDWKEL
N-glycosylase/DNA lyase (Homo sapiens), sequence (O15527 whole entry): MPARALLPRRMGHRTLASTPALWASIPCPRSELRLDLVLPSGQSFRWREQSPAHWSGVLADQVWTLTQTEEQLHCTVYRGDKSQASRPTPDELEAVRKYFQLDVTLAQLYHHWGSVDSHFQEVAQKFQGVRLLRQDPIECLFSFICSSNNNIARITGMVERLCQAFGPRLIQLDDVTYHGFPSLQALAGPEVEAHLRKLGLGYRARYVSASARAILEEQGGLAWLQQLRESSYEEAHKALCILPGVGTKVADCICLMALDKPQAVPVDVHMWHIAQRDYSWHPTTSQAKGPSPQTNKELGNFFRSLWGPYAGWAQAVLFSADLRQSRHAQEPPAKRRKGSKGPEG
Methyl-CpG-binding domain protein 4 (Homo sapiens), sequence (O95243 whole entry, the tested form may be a part): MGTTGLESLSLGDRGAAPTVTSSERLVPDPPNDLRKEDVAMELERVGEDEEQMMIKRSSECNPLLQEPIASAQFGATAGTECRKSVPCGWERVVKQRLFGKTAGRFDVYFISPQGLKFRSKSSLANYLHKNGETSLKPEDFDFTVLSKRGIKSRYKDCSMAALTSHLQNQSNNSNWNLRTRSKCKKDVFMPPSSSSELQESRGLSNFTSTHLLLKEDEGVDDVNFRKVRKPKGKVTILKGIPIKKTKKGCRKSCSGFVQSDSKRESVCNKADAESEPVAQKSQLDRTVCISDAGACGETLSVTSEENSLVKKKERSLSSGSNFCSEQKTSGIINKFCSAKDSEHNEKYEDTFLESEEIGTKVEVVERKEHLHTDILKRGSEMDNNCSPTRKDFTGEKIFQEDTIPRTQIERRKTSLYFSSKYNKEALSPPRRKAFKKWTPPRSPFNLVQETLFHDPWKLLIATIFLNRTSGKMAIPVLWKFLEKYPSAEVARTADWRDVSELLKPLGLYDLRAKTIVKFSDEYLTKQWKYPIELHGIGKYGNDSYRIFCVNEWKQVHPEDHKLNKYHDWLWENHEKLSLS
G/T mismatch-specific thymine DNA glycosylase (Homo sapiens), sequence (Q13569 whole entry): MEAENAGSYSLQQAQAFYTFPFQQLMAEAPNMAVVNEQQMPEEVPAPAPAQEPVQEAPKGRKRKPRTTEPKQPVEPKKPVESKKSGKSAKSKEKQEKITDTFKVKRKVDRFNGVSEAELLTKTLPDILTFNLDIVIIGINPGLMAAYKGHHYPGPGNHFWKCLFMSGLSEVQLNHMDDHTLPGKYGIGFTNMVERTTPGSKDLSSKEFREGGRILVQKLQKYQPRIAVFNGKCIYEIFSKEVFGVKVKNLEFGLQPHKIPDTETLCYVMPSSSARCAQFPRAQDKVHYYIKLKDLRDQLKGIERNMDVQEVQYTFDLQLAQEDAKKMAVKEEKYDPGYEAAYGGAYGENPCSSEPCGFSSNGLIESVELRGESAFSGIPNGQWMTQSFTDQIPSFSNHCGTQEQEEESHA

Row | Compound | inhibition [1] [%] | inhibition [2] [%] | inhibition [3] [%] | inhibition [4] [%] | inhibition [5] [%] | inhibition [6] [%] | inhibition [7] [%] | inhibition [8] [%] | inhibition [9] [%] | inhibition [10] [%]
1 | CN(Cc1cccc(F)c1CNc1cc(F)c(S(=O)(=O)Nc2cscn2)c(F)c1)C(C)(C)C | -9.64 | 18.7 | 4.92 | 2.08 | 20.1 | 28.6 | 40.5 | -2.39 | – | –
2 | C[C@H](NC(=O)[C@H](Cc1ccccc1)NC(=O)[C@H](CCC(N)=O)NC(=O)CNC(=O)[C@@H]1CCCN1C(=O)[C@H](Cc1ccccc1)NC(=O)[C@@H](N)Cc1ccc(O)cc1)C(=O)N[C@@H](Cc1ccccc1)C(=O)N[C@@H](CO)C(=O)O | -4.67 | 21.2 | 9.05 | 13.2 | 6.08 | 12.6 | 2.52 | 2.96 | – | –
3 | FC(F)(F)c1cccc(-c2noc(-c3cc(-c4ccccc4)c(C(F)(F)F)s3)n2)c1 | – | 4.86 | 9.3 | – | -0.823 | 6.66 | 1.81 | -4.73 | -2.17 | –
4 | CN1CC[C@@]23CCCC[C@@H]2[C@@H]1Cc1ccc(O)cc13 | -7.94 | 14.6 | -3.74 | -2.06 | -0.416 | 3.69 | -5.81 | -9.52 | – | –
5 | CCCCC1=NC2(CCCC2)C(=O)N1Cc1ccc(-c2ccccc2-c2nnn[nH]2)cc1 | – | -1.01 | 11.8 | 0.241 | 12.4 | 9.56 | 12.9 | 5.76 | -0.701 | –
6 | CC1(C)N=C(C2CCCCC2)c2ccc(C#N)cc2N(c2ccc(NCCNC3CCOCC3)cc2)C1=O | – | 19.6 | 5.19 | 4.75 | 7.31 | 10.6 | 1.14 | -3.41 | – | –
7 | Cc1cc(C)c(NC(=O)C2CC3CCC2C3)c(C)c1 (stereo not given) | -9.01 | 6.35 | 5.7 | -1.18 | 7.56 | 26.4 | 27.8 | – | – | –
8 | CCCNC(=O)c1nnc2c(-c3c(F)cccc3OC)cccc2c1N | -1.98 | 27.8 | 24.5 | 10.5 | 12.4 | 26.8 | 24.9 | -2.64 | – | –
9 | C[C@H]1CN(C[C@H](Cc2ccccc2)C(=O)NCC(=O)O)CC[C@@]1(C)c1cccc(O)c1 | -7.63 | 34.4 | 37.5 | -4.44 | 22.9 | 21.1 | 40.2 | -9.01 | – | –
10 | O=C(O)[C@H]1O[C@H](OP(=O)(O)OP(=O)(O)OC[C@H]2O[C@@H](n3ccc(=O)[nH]c3=O)[C@H](O)[C@@H]2O)[C@H](O)[C@@H](O)[C@@H]1O | – | 15.4 | 15.8 | – | 24.7 | 18.3 | 14.9 | -7.23 | – | –
11 | Nc1nc(CC(=O)Nc2ccc(CCNC[C@H](O)c3ccccc3)cc2)cs1 | -1.78 | 22 | 2.71 | 3.71 | 5.02 | 6.31 | 7.21 | -2.64 | – | –
12 | c1ccc(C2CN3CCC2CC3)cc1 (stereo not given) | -9.01 | 26.2 | 22.8 | 0.158 | 3.54 | 22 | 22.9 | -3.92 | – | –
13 | Fc1cccc(/C=N/N=C/c2cccc(F)c2)c1 | -6.06 | 15.4 | 5.75 | -5.18 | -2.88 | 4.13 | 1.53 | -1.37 | – | –
14 | C[C@H](C[C@H](N)C(=O)O)C(=O)O | – | -6.04 | 0.112 | -6.51 | 14.2 | 13.5 | 17 | 0.414 | – | –
15 | CCOC(=O)c1ncn2c1[C@@H]1CCCN1C(=O)c1cc(OC)ccc1-2 | -7.79 | -3.56 | -5.12 | -2.51 | -5.68 | 14.4 | -3.58 | -4.43 | – | –
16 | CN1CCN(Cc2ccc(-c3cccc(C(=O)Nc4ccccc4CC(=O)O)c3)cc2)CC1 | -2.65 | -1.91 | 14.1 | 17.2 | 12.7 | 18.1 | 17.7 | -2.64 | – | –
17 | CNC(=O)[C@H]1O[C@@H](n2cnc3c(NCc4cccc(I)c4)ncnc32)[C@H](O)[C@@H]1O | -5.89 | -2.73 | 6.72 | -7.1 | 2.83 | 10.4 | 14.2 | -8.76 | – | –
18 | C[C@@H](NC(=O)Cc1ccc(C2CC2)cc1)c1ccc(OCC(F)(F)F)cn1 | -2.14 | 11.3 | 4.49 | 0.602 | 10.8 | 4.9 | -6.51 | -6.21 | – | –
19 | CCN(c1ccccc1)c1cc(NC)[n+](C)c(C)n1 | -8.21 | 30.3 | 7.48 | -3.4 | 1.67 | 25.3 | 7.99 | 4.75 | – | –
20 | Cc1ccccc1C(=O)Nc1ccc(C(=O)N2CCCC(N(C)C)c3ccccc32)cc1 (stereo not given) | -2.08 | 21.2 | 18.4 | 11.6 | 11.6 | 19.4 | 10.3 | – | – | –
21 | CC1(C)Cc2c(CN3CCC4(CC3)CCN(C(=O)c3ccc(N)cn3)CC4)cccc2O1 | – | 8.82 | -2.08 | 7.27 | 8.62 | 21.4 | 2.36 | -6.46 | – | –
22 | COC[C@@H](c1ccc(C(F)(F)F)cc1)N1CCN(C2(C)CCN(C(=O)c3c(C)ncnc3C)CC2)C[C@@H]1C | -3.97 | 16.2 | -1.76 | -4.58 | -7.67 | 11.1 | 7.5 | – | – | –
23 | c1cnc2cc3c(cc2n1)[C@@H]1CNC[C@H]3C1 | -9.92 | 12.9 | 13.7 | 4.16 | 9.33 | 15.3 | 34.7 | – | – | –
24 | O=C1c2ccccc2C(Cc2ccncc2)(Cc2ccncc2)c2ccccc21 | – | 20.4 | 21.3 | 6.83 | 12.1 | 23.6 | 8.2 | -2.64 | – | –
25 | CN1CCC(C(=O)c2cccc(NC(=O)c3c(F)cc(F)cc3F)n2)CC1 | -8.11 | -6.14 | 19.6 | 4.54 | 2.3 | – | 9.62 | -1.73 | -2.69 | -9.63

Source: ChEMBL document CHEMBL5665443, “Enzyme Inhibitor Single Concentration assay results for EUbOPEN Chemogenomics Library” (2024)
